Experimental data as given in patent US20140171393A1, “NOVEL AROMATIC THIO COMPOUNDS AS RECEPTOR MODULATORS” (Allergan, Inc., priority 2012, published 2014).
pEC50: −log10 of the molar value.

Legend:
[1] = molecular target: T1, human S1P1 receptor (Homo sapiens, UniProt P21453); assay: GTP γ35S binding assay for S1P1 activity; format: biochemical; conditions: membranes of cells stably expressing the S1P1 receptor, read-out: Activity potency: S1P1 receptor from GTP γ35S, S1P1 EC50
T1 construct: expressed in transfected cells; membranes were used
Protocol: Compounds were tested for S1P1 activity using the GTP γ^35S binding assay. These compounds may be assessed for their ability to activate or block activation of the human S1P1 receptor in cells stably expressing the S1P1 receptor.
GTP γ^35S binding was measured in the medium containing (mM) HEPES 25, pH 7.4, MgCl2 10, NaCl 100, dithitothreitol 0.5, digitonin 0.003%, 0.2 nM GTP γ^355, and 5 μg membrane protein in a volume of 150 μl. Test compounds were included in the concentration range from 0.08 to 5,000 nM unless indicated otherwise. Membranes were incubated with 100 μM 5′-adenylylimmidodiphosphate for 30 min, and subsequently with 10 μM GDP for 10 min on ice. Drug solutions and membrane were mixed, and then reactions were initiated by adding GTP γ^355 and continued for 30 min at 25° C. Reaction mixtures were filtered over Whatman GF/B filters under vacuum, and washed three times with 3 mL of ice-cold buffer (HEPES 25, pH7.4, MgCl2 10 and NaCl 100). Filters were dried and mixed with scintillant, and counted for ^35S activity using a 8-counter. Agonist-induced GTP γ^355 binding was obtained by subtracting that in the absence of agonist. Binding data were analyzed using a non-linear regression method. In case of antagonist assay, the reaction mixture contained 10 nM S1P in the presence of test antagonist at concentrations ranging from 0.08 to 5000 nM.

[2] = tested on: blood lymphocytes; assay: Lymphopenia assay in mice; format: in vivo; conditions: 10 mg/Kg subcutaneously, female C57BL6 mice, after 5 hours, FIG. 1
Protocol: Test drugs are prepared in a solution containing 3% (w/v) 2-hydroxy propyl β-cyclodextrin (HPBCD) and 1% DMSO to a final concentration of 1 mg/ml, and subcutaneously injected to female C57BL6 mice (CHARLES RIVERS) weighing 20-25 g at the dose of 0.5 to 10 mg/Kg. Blood samples are obtained by puncturing the submandibular skin with a Goldenrod animal lancet at 5, 24, 48, 72, and 96 hrs post drug application. Blood is collected into microvettes (SARSTEDT) containing EDTA tripotassium salt. Lymphocytes in blood samples are counted using a HEMAVET Multispecies Hematology System, HEMAVET HV950FS (Drew Scientific Inc.).
A lymphopenia assay in mice; as previously described, was employed to measure the in vivo blood lymphocyte depletion after dosing with the test compound: [3-({3-bromo-4-[(5-phenylpentyl)thio]benzyl}amino)propyl]phosphonic acid Compound-1. This S1P1 modulator, [3-({3-bromo-4-[(5-phenylpentyl)thio]benzyl}amino)propyl]phosphonic acid Compound-1 is useful for S1P-related diseases and exemplified by the lymphopenia in vivo response. […] Lymphocytes in blood samples were counted using a HEMAVET Multispecies Hematology System, HEMAVET HV950FS (Drew Scientific Inc.). […]

T1 sequence (P21453 whole entry): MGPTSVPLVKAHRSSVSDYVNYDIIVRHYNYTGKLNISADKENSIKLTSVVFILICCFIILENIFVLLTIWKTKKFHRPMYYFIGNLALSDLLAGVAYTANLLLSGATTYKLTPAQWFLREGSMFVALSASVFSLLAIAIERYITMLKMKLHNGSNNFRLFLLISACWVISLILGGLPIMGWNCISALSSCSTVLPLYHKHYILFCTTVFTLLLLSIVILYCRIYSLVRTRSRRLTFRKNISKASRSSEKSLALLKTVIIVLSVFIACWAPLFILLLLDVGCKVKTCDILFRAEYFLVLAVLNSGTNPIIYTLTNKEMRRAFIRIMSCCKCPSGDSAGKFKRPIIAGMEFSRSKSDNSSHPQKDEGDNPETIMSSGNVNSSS

Question: How did the pEC50 [1] turn out when `O=P(O)(O)C(F)(F)CCNCc1ccc(SCCCCCc2ccccc2)c(OC(F)(F)F)c1` [Compound 18, [1,1-difluoro-3-({4-[(5-phenylpentyl)thio]-3-(trifluoromethoxy)benzyl}amino)propyl]phosphonic acid] was run?
Answer: The pEC50 was 7.87.

Question: `O=P(O)(O)CCCNCc1ccc(SCCCCCc2ccc(Cl)cc2)c(OC(F)(F)F)c1` [Compound 14, (3-{[4-{[5-(4-chlorophenyl)pentyl]thio}-3-(trifluoromethoxy)benzyl]amino}propyl)phosphonic acid] was tested. Which pEC50 [1] did it give?
Answer: Its pEC50 is 8.10.

Question: How did the pEC50 [1] turn out when `COc1ccc(CCCCCSc2ccc(CNCCCP(=O)(O)O)cc2OC(F)(F)F)cc1` [Compound 163, (3-{[4-{[5-(4-methoxyphenyl)pentyl]thio}-3-(trifluoromethoxy)benzyl]amino}propyl)phosphonic acid] was run?
Answer: Its pEC50 is 7.17.

Question: How did the pEC50 [1] turn out when `O=P(O)(O)CCCNCc1ccc(SCCCCCc2ccc(F)cc2)c(C(F)(F)F)c1` [Compound 10, (3-{[4-{[5-(4-fluorophenyl)pentyl]thio}-3-(trifluoromethyl)benzyl]amino}propyl)phosphonic acid] was run?
Answer: The pEC50 was 8.27.

Question: With `O=P(O)(O)CCCNCc1cc(F)c(SCCCCC2(c3ccccc3)CCCCC2)cc1F` [Compound 50, {3-[(2,5-difluoro-4-{[4-(1-phenylcyclohexyl)butyl]thio}benzyl)amino]propyl}phosphonic acid] as the molecule, how does the pEC50 [1] read?
Answer: Its pEC50 is 9.05.

Question: How did the pEC50 [1] turn out when `O=P(O)(O)CCCNCc1ccc(SCCCCCc2ccccc2)c(F)c1` [Compound 21, [3-({3-fluoro-4-[(5-phenylpentyl)thio]benzyl}amino)propyl]phosphonic acid] was run?
Answer: The pEC50 was 9.52.

Question: With `O=P(O)(O)CCCNCc1ccc(SCCCCCc2ccccc2)cc1` [Compound 6, [3-({4-[(5-phenylpentyl)thio]benzyl}amino)propyl]phosphonic acid] as the molecule, how does the pEC50 [1] read?
Answer: The pEC50 was 8.48.

Question: With `N#Cc1cc(CNCCCP(=O)(O)O)ccc1SCCCCCc1ccccc1` [Compound 8, [3-({3-cyano-4-[(5-phenylpentyl)thio]benzyl}amino)propyl]phosphonic acid] as the molecule, how does the pEC50 [1] read?
Answer: The pEC50 was 8.21.

Question: How did the pEC50 [1] turn out when `O=P(O)(O)CCCNCc1ccc(SCCCCCc2ccccc2)c(OC(F)(F)F)c1` [Compound 7, [3-({4-[(5-phenylpentyl)thio]-3-(trifluoromethoxy)benzyl}amino)propyl]phosphonic acid] was run?
Answer: The pEC50 was 9.22.

Question: `O=P(O)(O)CCCNCc1ccc(SCCCCC2(c3ccccc3)CCCCC2)c(Cl)c1` [Compound 164, {3-[(3-chloro-4-{[4-(1-phenylcyclohexyl)butyl]thio}benzyl)amino]propyl}phosphonic acid] was tested. Which pEC50 [1] did it give?
Answer: The pEC50 was 8.70.

Question: How did the pEC50 [1] turn out when `Cc1ccc(CCCCCSc2ccc(CNCCCP(=O)(O)O)cc2C)cc1` [Compound 23, {3-[(3-methyl-4-{[5-(4-methylphenyl)pentyl]thio}benzyl)amino]propyl}phosphonic acid] was run?
Answer: Its pEC50 is 7.38.

Question: How did the pEC50 [1] turn out when `COc1ccc(CCCCCSc2ccc(CNCCCP(=O)(O)O)cc2C(F)(F)F)cc1` [Compound 11, (3-{[4-{[5-(4-methoxyphenyl)pentyl]thio}-3-(trifluoromethyl)benzyl]amino}propyl)phosphonic acid] was run?
Answer: The pEC50 was 7.22.

Question: How did the pEC50 [1] turn out when `O=P(O)(O)CCCNCc1ccc(SCCCCCc2ccccc2)cc1C(F)(F)F` [Compound 3, [3-({4-[(5-phenylpentyl)thio]-2-(trifluoromethyl)benzyl}amino)propyl]phosphonic acid] was run?
Answer: Its pEC50 is 7.87.

Question: With `O=P(O)(O)CCCNCc1ccc(SCCCCCc2ccccc2)cc1Cl` [Compound 4, [3-({2-chloro-4-[(5-phenylpentyl)thio]benzyl}amino)propyl]phosphonic acid] as the molecule, how does the pEC50 [1] read?
Answer: The pEC50 was 8.66.

Question: How did the pEC50 [1] turn out when `O=P(O)(O)CCCNCc1ccc(SCCCCCc2ccccc2)c(Br)c1` [Compound-1, [3-({3-bromo-4-[(5-phenylpentyl)thio]benzyl}amino)propyl]phosphonic acid] was run?
Answer: The pEC50 was 8.74.

Question: And the “lymphocyte count (number of lymphocytes in blood)” value [2]?
Answer: Its value is < 1 10^3/μL blood.

Question: With `Cc1cc(CNCCCP(=O)(O)O)ccc1SCCCCCc1ccc(F)cc1` [Compound 9, {3-[(4-{[5-(4-fluorophenyl)pentyl]thio}-3-methylbenzyl)amino]propyl}phosphonic acid] as the molecule, how does the pEC50 [1] read?
Answer: Its pEC50 is 7.57.

Question: `CC(C)(CCCCSc1ccc(CNCCCP(=O)(O)O)cc1Br)c1ccccc1` [Compound 165, [3-({3-bromo-4-[(5-methyl-5-phenylhexyl)thio]benzyl}amino)propyl]phosphonic acid] was tested. Which pEC50 [1] did it give?
Answer: The pEC50 was 7.88.

Question: How did the pEC50 [1] turn out when `O=P(O)(O)CCCNCc1ccc(SCCCCCc2ccccc2)c(Cl)c1` [Compound 5, [3-({3-chloro-4-[(5-phenylpentyl)thio]benzyl}amino)propyl]phosphonic acid] was run?
Answer: The pEC50 was 8.82.

Question: With `CC(CCNCc1ccc(SCCCCCc2ccccc2)c(Cl)c1)P(=O)(O)O` (stereo not drawn) [Compound 19, [3-({3-chloro-4-[(5-phenylpentyl)thio]benzyl}amino)-1-methylpropyl]phosphonic acid] as the molecule, how does the pEC50 [1] read?
Answer: Its pEC50 is 8.06.

Question: With `Cc1cc(CNCCCP(=O)(O)O)ccc1SCCCCCc1ccccc1` [Compound 20, [3-({3-methyl-4-[(5-phenylpentyl)thio]benzyl}amino)propyl]phosphonic acid] as the molecule, how does the pEC50 [1] read?
Answer: Its pEC50 is 8.49.

Question: With `O=P(O)(O)CCCNCc1ccc(SCCCCCc2ccc(Cl)cc2)c(C(F)(F)F)c1` [Compound 13, (3-{[4-{[5-(4-chlorophenyl)pentyl]thio}-3-(trifluoromethyl)benzyl]amino}propyl)phosphonic acid] as the molecule, how does the pEC50 [1] read?
Answer: The pEC50 was 8.34.

Question: `Cc1ccc(CCCCCSc2ccc(CNCCCP(=O)(O)O)cc2OC(F)(F)F)cc1` [Compound 16, (3-{[4-{[5-(4-methylphenyl)pentyl]thio}-3 (trifluoromethoxy)benzyl]amino}propyl)phosphonic acid] was tested. Which pEC50 [1] did it give?
Answer: The pEC50 was 8.46.

Question: With `O=P(O)(O)CCCNCc1ccc(SCCCCCc2ccc(F)cc2)c(OC(F)(F)F)c1` [Compound 15, (3-{[4-{[5-(4-fluorophenyl)pentyl]thio}-3-(trifluoromethoxy)benzyl]amino}propyl)phosphonic acid] as the molecule, how does the pEC50 [1] read?
Answer: The pEC50 was 8.80.

Question: With `O=P(O)(O)C(F)(F)CCNCc1ccc(SCCCCCc2ccccc2)c(Cl)c1` [Compound 17, [3-({3-chloro-4-[(5-phenylpentyl)thio]benzyl}amino)-1,1-difluoropropyl]phosphonic acid] as the molecule, how does the pEC50 [1] read?
Answer: The pEC50 was 8.32.

Question: `O=P(O)(O)CCCNCc1ccc(SCCCCCc2ccc(F)cc2)cc1C(F)(F)F` [Compound 24, (3-{[4-{[5-(4-fluorophenyl)pentyl]thio}-2-(trifluoromethyl)benzyl]amino}propyl)phosphonic acid] was tested. Which pEC50 [1] did it give?
Answer: The pEC50 was 8.06.

Question: How did the pEC50 [1] turn out when `N#Cc1cc(CNCCCP(=O)(O)O)ccc1SCCCCCc1ccc(F)cc1` [Compound 22, {3-[(3-cyano-4-{[5-(4-fluorophenyl)pentyl]thio}benzyl)amino]propyl}phosphonic acid] was run?
Answer: Its pEC50 is 8.62.
